We go through 20 molecules from patent publication US5574015A, “Isosteric antiherpes peptide derivatives” (priority 1994, dated 1996).

Broadly, the EC50 is the midpoint of the concentration-response curve.

The subject of the test is HSV-2. Nature of the test: Inhibition of Herpes Simplex Virus (HSV-2) replication in cell culture. It counts as cell-based, HSV-2 strain HG-52. Here is the method:
Inhibition of Herpes Simplex Virus (HSV-2). Replication in Cell Culture
BHK-21/C13 cells (ATCC CCL 10) are incubated for two days in 150 cm^2 T-flasks (1.5×10^6 cells/flask) with alpha-MEM medium (Gibco Canada Inc., Burlington, Ontario, Canada) supplemented with 8% (v/v) fetal bovine serum (FBS, Gibco Canada Inc.). The cells are trypsinized and then transferred to fresh media in a 24 well plate to give 2.5×10^5 cells in 750 μL of media per well. The cells are incubated at 37° for a period of 6 h to allow them to adhere to the plate. Thereafter, the cells are washed once with 500 μL of alpha-MEM supplemented with 0.5% (v/v) FBS and then incubated with 750 μL of the see media (low serum) for 3 days. After this period of serum starvation, the low serum medium is removed and the cells are incubated in 500 μL of BBMT for 2 to 3 hours. {BBMT medium is described by P. Brazeau et al., Proc. Natl. Acad. Sci. USA, 79, 7909 (1982).} Thereafter, the cells are infected with HSV-2 (multiplicity of infection=0.02 PFU/cell) in 100 μL of BBMT medium. (Note: The HSV-2 used was strain HG-52, see Y. Langelier and G. Buttin, J. Gen. Virol., 57, 21 (1981); the virus was stored at -80°) Following 1 h of virus adsorption at 37°, the media is removed and the cells are washed with BBMT (3×250 μL). The cells in each well are incubated with or without (control) appropriate concentrations of the test agent dissolved in 200 μL of BBMT medium. After 29 h of incubation at 37°, the infected cells are harvested by first freezing the plate at -80°, followed by thawing. The cells in each well are scraped off the surface of the well with the help of the melting ice fragments. After complete thawing, the cell suspensions are collected and each well is rinsed with 150 μL of BBMT medium. The viral sample (suspension plus washing) is sonicated gently for 4 min at 4°. Cell debris are removed by centrifugation (1000 times gravity for 10 minutes at 4°). The supernatant is collected and stored at -80° until determination of viral titer.
Viral titration was performed by a modification of the colorimetric assay method of M. Langlois et al., Journal of Biological Standardization, 14, 201 (1986).
More specifically, in a similar manner as described above, BHK-21/C13 cells are trypsinized and transferred to fresh media in a 96 well microtiter plate to give 20,000 cells in 100 μL of media per well. The cells in the prepared plate are incubated at 37° for 2 h. During that time, the viral sample is thawed and sonicated gently for 15 seconds, and log dilutions of the sample are prepared (1/5 sequential: 50 μL of the sample plus 200 μL of BBMT medium, sequential dilutions being done with a multichannel pipette.
On completion of the above 2 hour incubation of the BHK-21/C13 cells, the media is replaced with alpha-MEM medium supplemented with 3% (v/v) FBS. The cells are now ready to be infected with the various sample dilutions of virus. Aliquots (50 μL) of the various dilutions are transferred into the appropriate wells of the plate. The resulting infected cells are incubated for 2 days at 37°. Then 50 μL of a 0.15% (v/v) solution of neutral red dye in Hank's Balanced Salt Solution (pH 7.3, Gibco Canada Inc.) is added to each well. The prepared plate is incubated for 45 min at 37°. Medium from each well is then aspirated and the cells are washed once with 200 μL of Hank's Balanced Salt Solution. […]

The mark [1] stands for this setting: Table II, BHK-21/C13 cells, 29 h incubation, 50% inhibition of virus replication.
Where [2] appears, read: Table V, cell culture assay of example 11.

Take `Nc1nc2c(ncn2COCCO)c(=O)[nH]1` [acyclovir, reference compound]: the EC50 (Human alphaherpesvirus 2, Table III, acyclovir + 2 μM of peptide (title peptide of example 6)) was 1.4 µM; the concentration giving a half-maximal response (EC50) (Human alphaherpesvirus 2, Table III, acyclovir + 4 μM of peptide (title peptide of example 6)) was 0.9 µM; the EC50 (Human alphaherpesvirus 2, Table III, acyclovir + 6 μM of peptide (title peptide of example 6)) was found to be 0.9 µM; the EC50 (Human alphaherpesvirus 2, Table III, acyclovir + 8 μM of peptide (title peptide of example 6)) came to 0.8 µM; the EC50 (Human alphaherpesvirus 2, Table III, acyclovir + 10 μM of peptide (title peptide of example 6)) came out at 0.42 µM. The “synergism by the isobole method” value (combination of acyclovir and title peptide of example 6, FIG. 1) was “positive result”. Also, under “combinations with title peptide of example 6, EC50's significantly lower than acyclovir alone”, the “action of the combination of acyclovir and the peptide versus acyclovir alone” value is recorded as “synergistic action”.

Molecule “Et2 CHNHC(O)--Tbg--CH2 --(R)-CH(CH2 C(O)--CMe3)C(O)--Asp(cyPn)--NHCH2 CMe3” came in with an EC50 under setting [1] of 56 µM.

Under setting [1], “Et2 CHNHC(O)--Tbg--CH2 --(R)-CH{CH2 C(O)--(cyclopentyl)}C(O)--Asp(cyPn)--NHCH2 CMe3” had a 50% effective concentration (EC50) of 50 µM.

“Et2 CHNHC(O)--Tbg--CH2 --(S)-CH{CH2 C(O)--(pyrrolidino)}C(O)--Asp(cyPn)--γMeLeucinol” yielded an EC50 under setting [1] of 200 µM.

For the setting “Table IV, cell culture assay of example 11”, “Me(CH2 =CH--CH2)2 CNHC(O)-Tbg-CH2 --(R)--CH(CH2 C(O)CMe3)C(O)-Asp(cyPn)-NHCH2 CMe3 [Me(CH2 =CHCH2)2 --CNHC(O), NHCH2 CMe3]” displayed an EC50 of 30 µM.

Turning to “PhCH2 CH2 C(O)--(N--Me)Val--Tbg--CH2 --(R)-CH(CH2 C(O)CMe3)C(O)--Asp(cyPn)--γMeLeu--NH2”, under setting [1], the EC50 turned out to be 60 µM.

“PhCH2 CH2 C(O)--(N--Me)Val--Tbg--CH2 --(R)-CH(CH2 C(O)CMe3)C(O)--Asp(cyPn)--γMeLeu--OH” returned a concentration for a half-maximal effect (EC50) under setting [1] of 65 µM.

With “PhCH2 CH2 C(O)--(N-Me)Val-Tbq-CH2 --(R)--CH(CH2 C(O)CMe3)C(O)-Asp(cyPn)-γMeLeucinol [Title Compound of Example 6]”, the EC50 by setting is: under setting [1], 15 µM; (Table III, agent alone, BHK-21/C13 cells) 19 µM.

Turning to “Pr2 CHNHC(O)--NH--(S)-CH(CMe2 Et)--C(O)--CH2 --(R)-CH(CH2 C(O)CMe3)C(O)--Asp--(cyPn)--NH--(R)-CH(Me)CMe3”, the 50% effective concentration (EC50) under setting [2] was 13 µM.

In the case of “Pr2 CHNHC(O)--Tbg--CH2 --(R)-CH(CH2 --C(O)CHMe2)C(O)--Asp(cyPn)--NHCH2 CMe3”, the EC50 under setting [2] is 39 µM.

Under setting [2], “Pr2 CHNHC(O)--Tbg--CH2 --(R)-CH(CH2 --C(O)CMe2 Et)C(O)--Asb(cyPn)--NHCH2 --CMe3” gave an EC50 of 33 µM.

Molecule “Pr2 CHNHC(O)--Tbg--CH2 --(R)-CH(CH2 --C(O)CMe3)C(O)--Asp{(R)-Pr}--NHCH2 CMe3” displayed an EC50 under setting [2] of 46 µM.

The molecule “Pr2 CHNHC(O)--Tbg--CH2 --(R)-CH(CH2 --C(O)CMe3)C(O)--Asp{(R)-allyl}--NHCH2 CMe3” had an EC50 under setting [2] of 62 µM.

In the case of “Pr2 CHNHC(O)--Tbg--CH2 --(R)-CH(CH2 C(O)--CMe3)C(O)--Asp(cyPn)--NHCH2 CMe3”, the concentration for a half-maximal effect (EC50) under setting [1] amounted to 24 µM.

In turn, “Pr2 CHNHC(O)--Tbg--CH2 --(R)-CH(CH2 C(O)--CMe3)C(O)--Asp(cyPn)--γMeLeucinol” showed an EC50 under setting [1] of 30 µM.

On to “Pr2 CHNHC(O)--Tbg--CH2 --(R)-CH--(CH2 C(O)CH2 CMe3)C(CF)--Asp(cyPn)--Leu--OH”, for which, under setting [2], a half-maximal response (EC50) required 80 µM.

Molecule “Pr2 CHNHC(O)--Tbg--CH2 --(R)-CH{CH2 --C(O)--(1-methylcyclopentyl)}C(O)--Asp(cyPn)--NHCH2 CMe3” came in with an EC50 under setting [2] of 35 µM.

Molecule “Pr2 CHNHC(O)--Tbg--CH2 --(R)-CH{CH2 --C(O)--(cyclobutyl)}C(O)--Asp(cyPn)--NHCH2 CMe3” showed a half-maximal effective concentration (EC50) under setting [2] of 46 µM.

With “Pr2 CHNHC(O)--Tbg--CH2 --(R)-CH{CH2 --C(O)--(cyclohexyl)}C(O)--Asp(cyPn)--NHCH2 CMe3”, a half-maximal effect under setting [2] (EC50) was put at 61 µM.

Under setting [2], “Pr2 CHNHC(O)--Val--CH2 --(R)-CH(CH2 --C(O)CMe3)C(O)--Asp(cyPn)--NH--(R)-CH(Me)CMe3” came in with a 50% effective concentration (EC50) of 37 µM.
